Measured values: patent US20230398130A1, “METHODS AND COMPOSITIONS FOR DIFFERENTIATING STEM CELLS” (Massachusetts Institute of Technology, priority 2020, published 2023)

Tests used:
ISC-enriched organoids [1] = assay: Primary screen, 384-well 2.5-D organoid differentiation (ENR+CD, 6 days): basal lysozyme secretion (LYZ.NS); assay type: cell-based, murine; conditions: for Dose.FC.LYZ.NS: FC vs plate median; for SSMD.LYZ.NS: strictly standardized mean difference
From the text: (§1) High-throughput screening.

ISC-enriched organoids [2] = assay: Primary screen, 384-well 2.5-D organoid differentiation (ENR+CD, 6 days): carbachol-induced lysozyme secretion (LYZ.S); assay type: cell-based, murine; conditions: for Dose.FC.LYZ.S: FC vs plate median; for Z.LYZ.S: standard z score; for SSMD.LYZ.S: strictly standardized mean difference
From the text: as §1

ISC-enriched organoids [3] = assay: Primary screen, 384-well 2.5-D organoid differentiation (ENR+CD, 6 days, Target Selective Inhibitor Library, vs whole-plate median): ATP (CellTiter-Glo 3D, CTG); conditions: for Dose.FC.CTG: FC vs plate median; for SSMD.CTG: strictly standardized mean difference
[4] = Dose 0.08 uM, primary screen, standard z score
[5] = Dose 0.40 uM, primary screen, standard z score
[6] = Dose 2.00 uM, primary screen, standard z score
[7] = Dose 10.00 uM, primary screen, standard z score
[8] = primary screen, 3rd of the 4 dose lines of the treatment (dose not given)
[9] = primary screen, 4th of the 4 dose lines of the treatment (dose not given)
[10] = Dose 0.08 uM, standard z score of FC
[11] = Dose 0.40 uM, standard z score of FC
[12] = Dose 2.00 uM, standard z score of FC
[13] = Dose 10.00 uM, standard z score of FC

Q: Which Dose.FC.LYZ.NS (ISC-enriched organoids [1]; Dose 0.08 uM, primary screen) does the source give for Cn1cc(/C=C2\C(=O)Nc3cccnc32)c2ccccc21 [GW441756] here?
A: 0.046 log 2 fold change

Q: And the Z.LYZ.NS (ISC-enriched organoids [1]; [4])?
A: 0.399

Q: What about the Dose.FC.LYZ.NS (ISC-enriched organoids [1]; Dose 0.40 uM, primary screen) of the same molecule?
A: 0.061 log 2 fold change

Q: And the Z.LYZ.NS (ISC-enriched organoids [1]; [5])?
A: 0.529

Q: What about the Dose.FC.LYZ.NS (ISC-enriched organoids [1]; Dose 2.00 uM, primary screen) of the same molecule?
A: 0.117 log 2 fold change

Q: And the Z.LYZ.NS (ISC-enriched organoids [1]; [6])?
A: 1.023

Q: And the Dose.FC.LYZ.NS (ISC-enriched organoids [1]; Dose 10.00 uM, primary screen)?
A: 0.088 log 2 fold change

Q: What about the Z.LYZ.NS (ISC-enriched organoids [1]; [7]) of the same molecule?
A: 0.763

Q: And the SSMD.LYZ.NS (ISC-enriched organoids [1]; [8])?
A: 1.215

Q: And the SSMD.LYZ.NS (ISC-enriched organoids [1]; [9])?
A: 0.357

Q: What about the Dose.FC.LYZ.S (ISC-enriched organoids [2]; Dose 0.08 uM, primary screen) of the same molecule?
A: 0.075 log 2 fold change

Q: And the Dose.FC.LYZ.S (ISC-enriched organoids [2]; Dose 0.40 uM, primary screen)?
A: 0.196 log 2 fold change

Q: And the Dose.FC.LYZ.S (ISC-enriched organoids [2]; Dose 2.00 uM, primary screen)?
A: 0.125 log 2 fold change

Q: What about the Dose.FC.LYZ.S (ISC-enriched organoids [2]; Dose 10.00 uM, primary screen) of the same molecule?
A: 0.071 log 2 fold change

Q: And the Z.LYZ.S (ISC-enriched organoids [2]; [8])?
A: 0.806

Q: And the Z.LYZ.S (ISC-enriched organoids [2]; [9])?
A: 0.458

Q: What about the SSMD.LYZ.S (ISC-enriched organoids [2]; [8]) of the same molecule?
A: 0.911

Q: What about the SSMD.LYZ.S (ISC-enriched organoids [2]; [9]) of the same molecule?
A: 0.449

Q: What about the Dose.FC.CTG (ISC-enriched organoids [3]; Dose 0.08 uM, primary screen) of the same molecule?
A: 0.048 log 2 fold change

Q: And the Z.CTG (ISC-enriched organoids [3]; [4])?
A: 0.114

Q: What about the Dose.FC.CTG (ISC-enriched organoids [3]; Dose 0.40 uM, primary screen) of the same molecule?
A: −0.105 log 2 fold change

Q: What about the Z.CTG (ISC-enriched organoids [3]; [5]) of the same molecule?
A: −0.252

Q: What about the Dose.FC.CTG (ISC-enriched organoids [3]; Dose 2.00 uM, primary screen) of the same molecule?
A: 0.152 log 2 fold change

Q: And the Z.CTG (ISC-enriched organoids [3]; [6])?
A: 0.364

Q: What about the Dose.FC.CTG (ISC-enriched organoids [3]; Dose 10.00 uM, primary screen) of the same molecule?
A: −0.113 log 2 fold change

Q: And the Z.CTG (ISC-enriched organoids [3]; [7])?
A: −0.270

Q: And the SSMD.CTG (ISC-enriched organoids [3]; [8])?
A: 0.468

Q: And the SSMD.CTG (ISC-enriched organoids [3]; [9])?
A: −0.350

Q: For CC(C)c1cc(-c2n[nH]c(=O)n2-c2ccc3c(ccn3C)c2)c(O)cc1O [Ganetespib (STA-9090)], which Dose.FC.LYZ.NS (ISC-enriched organoids [1]; Dose 0.08 uM, ENR+CD, 6 days) is on record?
A: −0.141 log 2 fold change

Q: And the Z.LYZ.NS (ISC-enriched organoids [1]; [10])?
A: −1.226

Q: And the Dose.FC.LYZ.NS (ISC-enriched organoids [1]; Dose 0.40 uM, ENR+CD, 6 days)?
A: −0.155 log 2 fold change

Q: What about the Z.LYZ.NS (ISC-enriched organoids [1]; [11]) of the same molecule?
A: −1.345

Q: What about the Dose.FC.LYZ.NS (ISC-enriched organoids [1]; Dose 2.00 uM, ENR+CD, 6 days) of the same molecule?
A: −0.150 log 2 fold change

Q: What about the Z.LYZ.NS (ISC-enriched organoids [1]; [12]) of the same molecule?
A: −1.309

Q: What about the Dose.FC.LYZ.NS (ISC-enriched organoids [1]; Dose 10.00 uM, ENR+CD, 6 days) of the same molecule?
A: −0.136 log 2 fold change

Q: And the Z.LYZ.NS (ISC-enriched organoids [1]; [13])?
A: −1.181

Q: And the Dose.FC.LYZ.S (ISC-enriched organoids [2]; Dose 0.08 uM, ENR+CD, 6 days)?
A: −0.260 log 2 fold change

Q: What about the Dose.FC.LYZ.S (ISC-enriched organoids [2]; Dose 0.40 uM, ENR+CD, 6 days) of the same molecule?
A: −0.250 log 2 fold change

Q: What about the Dose.FC.LYZ.S (ISC-enriched organoids [2]; Dose 2.00 uM, ENR+CD, 6 days) of the same molecule?
A: −0.260 log 2 fold change

Q: What about the Dose.FC.LYZ.S (ISC-enriched organoids [2]; Dose 10.00 uM, ENR+CD, 6 days) of the same molecule?
A: −0.267 log 2 fold change

Q: And the Dose.FC.CTG (ISC-enriched organoids [3]; Dose 0.08 uM, ENR+CD, 6 days)?
A: −1.450 log 2 fold change

Q: What about the Z.CTG (ISC-enriched organoids [3]; [10]) of the same molecule?
A: −3.465

Q: And the Dose.FC.CTG (ISC-enriched organoids [3]; Dose 0.40 uM, ENR+CD, 6 days)?
A: −2.105 log 2 fold change

Q: And the Z.CTG (ISC-enriched organoids [3]; [11])?
A: −5.027

Q: What about the Dose.FC.CTG (ISC-enriched organoids [3]; Dose 2.00 uM, ENR+CD, 6 days) of the same molecule?
A: −1.721 log 2 fold change

Q: What about the Z.CTG (ISC-enriched organoids [3]; [12]) of the same molecule?
A: −4.110

Q: And the Dose.FC.CTG (ISC-enriched organoids [3]; Dose 10.00 uM, ENR+CD, 6 days)?
A: −1.620 log 2 fold change

Q: What about the Z.CTG (ISC-enriched organoids [3]; [13]) of the same molecule?
A: −3.871

Q: How did the Dose.FC.LYZ.NS (ISC-enriched organoids [1]; Dose 0.08 uM, ENR+CD, 6 days) turn out when C[C@@H]1C(=O)O[C@H]2C[C@@]34[C@H]5C[C@@H](C(C)(C)C)[C@]36[C@@H](OC(=O)[C@@H]6O)O[C@@]4(C(=O)O5)[C@]21O [Ginkgolide A] was run?
A: 0.045 log 2 fold change

Q: And the Z.LYZ.NS (ISC-enriched organoids [1]; [10])?
A: 0.395

Q: And the Dose.FC.LYZ.NS (ISC-enriched organoids [1]; Dose 0.40 uM, ENR+CD, 6 days)?
A: 0.025 log 2 fold change

Q: And the Z.LYZ.NS (ISC-enriched organoids [1]; [11])?
A: 0.222

Q: And the Dose.FC.LYZ.NS (ISC-enriched organoids [1]; Dose 2.00 uM, ENR+CD, 6 days)?
A: 0.030 log 2 fold change

Q: What about the Z.LYZ.NS (ISC-enriched organoids [1]; [12]) of the same molecule?
A: 0.258

Q: What about the Dose.FC.LYZ.NS (ISC-enriched organoids [1]; Dose 10.00 uM, ENR+CD, 6 days) of the same molecule?
A: 0.052 log 2 fold change

Q: What about the Z.LYZ.NS (ISC-enriched organoids [1]; [13]) of the same molecule?
A: 0.450

Q: And the Dose.FC.LYZ.S (ISC-enriched organoids [2]; Dose 0.08 uM, ENR+CD, 6 days)?
A: 0.124 log 2 fold change

Q: And the Dose.FC.LYZ.S (ISC-enriched organoids [2]; Dose 0.40 uM, ENR+CD, 6 days)?
A: 0.161 log 2 fold change

Q: What about the Dose.FC.LYZ.S (ISC-enriched organoids [2]; Dose 2.00 uM, ENR+CD, 6 days) of the same molecule?
A: 0.002 log 2 fold change

Q: And the Dose.FC.LYZ.S (ISC-enriched organoids [2]; Dose 10.00 uM, ENR+CD, 6 days)?
A: −0.028 log 2 fold change

Q: And the Dose.FC.CTG (ISC-enriched organoids [3]; Dose 0.08 uM, ENR+CD, 6 days)?
A: 0.005 log 2 fold change

Q: And the Z.CTG (ISC-enriched organoids [3]; [10])?
A: 0.011

Q: What about the Dose.FC.CTG (ISC-enriched organoids [3]; Dose 0.40 uM, ENR+CD, 6 days) of the same molecule?
A: −0.017 log 2 fold change

Q: And the Z.CTG (ISC-enriched organoids [3]; [11])?
A: −0.040

Q: What about the Dose.FC.CTG (ISC-enriched organoids [3]; Dose 2.00 uM, ENR+CD, 6 days) of the same molecule?
A: 0.040 log 2 fold change

Q: What about the Z.CTG (ISC-enriched organoids [3]; [12]) of the same molecule?
A: 0.095

Q: What about the Dose.FC.CTG (ISC-enriched organoids [3]; Dose 10.00 uM, ENR+CD, 6 days) of the same molecule?
A: −0.012 log 2 fold change

Q: What about the Z.CTG (ISC-enriched organoids [3]; [13]) of the same molecule?
A: −0.028

Q: How did the Dose.FC.LYZ.NS (ISC-enriched organoids [1]; Dose 0.08 uM, ENR+CD, 6 days) turn out when CC1C(=O)OC2C(O)C34C5CC(C(C)(C)C)C36C(OC(=O)C6O)OC4(C(=O)O5)C12O (stereo not shown) [Ginkgolide B] was run?
A: 0.041 log 2 fold change

Q: What about the Z.LYZ.NS (ISC-enriched organoids [1]; [10]) of the same molecule?
A: 0.353

Q: And the Dose.FC.LYZ.NS (ISC-enriched organoids [1]; Dose 0.40 uM, ENR+CD, 6 days)?
A: 0.109 log 2 fold change

Q: What about the Z.LYZ.NS (ISC-enriched organoids [1]; [11]) of the same molecule?
A: 0.950

Q: And the Dose.FC.LYZ.NS (ISC-enriched organoids [1]; Dose 2.00 uM, ENR+CD, 6 days)?
A: 0.061 log 2 fold change

Q: And the Z.LYZ.NS (ISC-enriched organoids [1]; [12])?
A: 0.528

Q: And the Dose.FC.LYZ.NS (ISC-enriched organoids [1]; Dose 10.00 uM, ENR+CD, 6 days)?
A: −0.037 log 2 fold change

Q: What about the Z.LYZ.NS (ISC-enriched organoids [1]; [13]) of the same molecule?
A: −0.326

Q: And the Dose.FC.LYZ.S (ISC-enriched organoids [2]; Dose 0.08 uM, ENR+CD, 6 days)?
A: 0.034 log 2 fold change

Q: What about the Dose.FC.LYZ.S (ISC-enriched organoids [2]; Dose 0.40 uM, ENR+CD, 6 days) of the same molecule?
A: 0.047 log 2 fold change

Q: And the Dose.FC.LYZ.S (ISC-enriched organoids [2]; Dose 2.00 uM, ENR+CD, 6 days)?
A: 0.033 log 2 fold change

Q: What about the Dose.FC.LYZ.S (ISC-enriched organoids [2]; Dose 10.00 uM, ENR+CD, 6 days) of the same molecule?
A: −0.035 log 2 fold change

Q: What about the Dose.FC.CTG (ISC-enriched organoids [3]; Dose 0.08 uM, ENR+CD, 6 days) of the same molecule?
A: −0.076 log 2 fold change

Q: What about the Z.CTG (ISC-enriched organoids [3]; [10]) of the same molecule?
A: −0.182

Q: And the Dose.FC.CTG (ISC-enriched organoids [3]; Dose 0.40 uM, ENR+CD, 6 days)?
A: 0.034 log 2 fold change

Q: And the Z.CTG (ISC-enriched organoids [3]; [11])?
A: 0.081

Q: And the Dose.FC.CTG (ISC-enriched organoids [3]; Dose 2.00 uM, ENR+CD, 6 days)?
A: −0.154 log 2 fold change

Q: And the Z.CTG (ISC-enriched organoids [3]; [12])?
A: −0.369

Q: And the Dose.FC.CTG (ISC-enriched organoids [3]; Dose 10.00 uM, ENR+CD, 6 days)?
A: 0.177 log 2 fold change

Q: What about the Z.CTG (ISC-enriched organoids [3]; [13]) of the same molecule?
A: 0.422
